The results in this text go back to patent US7186831B2, “5-halo-2-alkyl[1,2,4]triazolo[1,5-a]pyrimidin-7-amines” (priority 2001, dated 2007).

A short description of the first data set: log P by HPLC. The conditions noted are these: EEC directive 79/831 Annex V. A8 by HPLC (gradient method, acetonitrile/0.1% aqueous phosphoric acid). Type of data set: physicochemical.
In the case of `Fc1cc(F)c(-c2c(Cl)nc3nc(C4CC4)nn3c2N2CCOCC2)c(F)c1` [compound 475], the logP was found to be 3.02.
Same read-out and setting: the result for `CC(C)CNc1c(-c2c(F)cccc2Cl)c(Cl)nc2nc(C3CC3)nn12` [compound 476] reads 3.64; that for `CC(C)(C)CNc1c(-c2c(F)cccc2Cl)c(Cl)nc2nc(C3CC3)nn12` [compound 477], 4.08; that for `CCC(C)Nc1c(-c2c(F)cccc2Cl)c(Cl)nc2nc(C3CC3)nn12` (stereo not shown) [compound 478], 3.66.
On the same count and under the same terms, the value for `Fc1cccc(Cl)c1-c1c(Cl)nc2nc(C3CC3)nn2c1NC1CCCC1` [compound 479] was 3.83; that for `Fc1cccc(Cl)c1-c1c(Cl)nc2nc(C3CC3)nn2c1NCC(F)(F)F` [compound 481] was 3.19.
Still for that read-out and setting: the value for `Fc1cccc(Cl)c1-c1c(Cl)nc2nc(C3CC3)nn2c1NCC1CC1` [compound 482] was 3.4; that for `C=C(C)CNc1c(-c2c(F)cccc2Cl)c(Cl)nc2nc(C3CC3)nn12` [compound 483] was 3.31.
In turn, `Clc1ccccc1-c1c(Cl)nc2nc(C3CC3)nn2c1N1CCCCO1` [compound 484] registered a log partition coefficient (logP) of 3.71.
On the same count and under the same terms, the value for `Fc1cc(F)c(-c2c(Cl)nc3nc(C4CC4)nn3c2N2CCCCO2)c(F)c1` [compound 485] was 3.74.
Regarding `Fc1cccc(Cl)c1-c1c(Cl)nc2nc(C3CC3)nn2c1N1CCCCO1` [compound 486], the log partition coefficient (logP) was 3.74.
On the same count and under the same terms, the result for `Fc1cc(F)c(-c2c(Cl)nc3nc(C4CC4)nn3c2N2CCCCN2)c(F)c1` [compound 487] reads 3.42; that for `Clc1ccccc1-c1c(Cl)nc2nc(C3CC3)nn2c1N1CCCCN1` [compound 488], 3.39.
The same measure, in the same setting: the result for `C=C(C)CN(CC)c1c(-c2ccc(F)cc2F)c(Cl)nc2nc(C3CC3)nn12` [compound 491] reads 4.37.
The same measure, in the same setting: the value for `CC(C)CNc1c(-c2ccccc2Cl)c(Cl)nc2nc(C3CC3)nn12` [compound 492] was 3.76; that for `Clc1ccccc1-c1c(Cl)nc2nc(C3CC3)nn2c1N1CCCCC1` [compound 493] was 4.27.
On to `CCC(C)Nc1c(-c2ccccc2Cl)c(Cl)nc2nc(C3CC3)nn12` (stereo not shown) [compound 494], for which the logP was 3.76.
The same measure, in the same setting: the value for `C=C(C)CNc1c(-c2ccccc2Cl)c(Cl)nc2nc(C3CC3)nn12` [compound 495] was 3.41; that for `C=C(C)CN(C)c1c(-c2ccccc2Cl)c(Cl)nc2nc(C3CC3)nn12` [compound 496] was 4.32; that for `CC(C)CN(C)c1c(-c2ccccc2Cl)c(Cl)nc2nc(C3CC3)nn12` [compound 497] was 4.41.
Same read-out and setting: the value for `CC1CCCN1c1c(-c2ccccc2Cl)c(Cl)nc2nc(C3CC3)nn12` (stereo not shown) [compound 498] was 3.99; that for `CC1CCCCN1c1c(-c2ccccc2Cl)c(Cl)nc2nc(C3CC3)nn12` (stereo not shown) [compound 499] was 4.61; that for `FC(F)(F)CNc1c(-c2ccccc2Cl)c(Cl)nc2nc(C3CC3)nn12` [compound 500] was 3.22.
Still for that read-out and setting: the result for `FC(F)(F)C1CCCN1c1c(-c2ccccc2Cl)c(Cl)nc2nc(C3CC3)nn12` (stereo not shown) [compound 501] reads 4.41; that for `Cc1nc2nc(Cl)c(-c3c(F)cc(F)cc3F)c(N(C)CC3CC3(Cl)Cl)n2n1` (stereo not shown) [compound 502], 3.68; that for `CC(C)Nc1c(-c2ccc(F)cc2Cl)c(Cl)nc2nc(C3CC3)nn12` [compound 503], 3.5.
The compound `Fc1ccc(-c2c(Cl)nc3nc(C4CC4)nn3c2N2CCCCN2)c(Cl)c1` [compound 504] registered a lipophilicity (logP) of 3.58.
On the same count and under the same terms, the result for `Cc1nc2nc(Cl)c(-c3c(F)cc(F)cc3F)c(NC(C)C(C)C)n2n1` (stereo not shown) [compound 506] reads 3.35.
Still for that read-out and setting: the result for `CN(CC1CC1(Cl)Cl)c1c(-c2ccc(F)cc2F)c(Cl)nc2nc(C3CC3)nn12` (stereo not shown) [compound 507] reads 4.18.
Still for that read-out and setting: the value for `CN(CC1CC1(Cl)Cl)c1c(-c2ccccc2Cl)c(Cl)nc2nc(C3CC3)nn12` (stereo not shown) [compound 508] was 4.29; that for `CN(CC1CC1(Cl)Cl)c1c(-c2c(F)cc(F)cc2F)c(Cl)nc2nc(C3CC3)nn12` (stereo not shown) [compound 509] was 4.26; that for `CCC1=CCN(c2c(-c3ccc(F)cc3F)c(Cl)nc3nc(C4CC4)nn23)CC1` [compound 511] was 4.59.
`CC1=CCCN(c2c(-c3ccc(F)cc3F)c(Cl)nc3nc(C4CC4)nn23)C1` [compound 512] returned a lipophilicity (logP) of 4.14.
`Fc1ccc(-c2c(Cl)nc3nc(C4CC4)nn3c2N2CCC(F)CC2)c(F)c1` [compound 513] returned a logP of 3.45.
On the same count and under the same terms, the value for `CC(C)(C)OC(=O)NC1CCN(c2c(-c3ccc(F)cc3F)c(Cl)nc3nc(C4CC4)nn23)CC1` [compound 514] was 3.78.
The same measure, in the same setting: the value for `Fc1ccc(-c2c(Cl)nc3nc(C4CC4)nn3c2N2CCC(C(F)(F)F)CC2)c(F)c1` [compound 515] was 4.07; that for `CC(=O)NC1CCN(c2c(-c3ccc(F)cc3F)c(Cl)nc3nc(C4CC4)nn23)CC1` [compound 516] was 2.2.
The compound `Fc1ccc(-c2c(Cl)nc3nc(C4CC4)nn3c2N2CCCCC2)c(F)c1` [compound 517] displayed a logP of 4.03.
Same read-out and setting: the value for `Fc1ccc(-c2c(Cl)nc3nc(C4CC4)nn3c2N2CCOCC2)c(F)c1` [compound 518] was 2.85.
Take `Fc1ccc(-c2c(Cl)nc3nc(C4CC4)nn3c2N2CCSCC2)c(F)c1` [compound 519]: the log partition coefficient (logP) is given as 3.58.
Same read-out and setting: the value for `Cc1ccc(Nc2c(-c3ccc(F)cc3F)c(Cl)nc3nc(C4CC4)nn23)cc1` [compound 521] was 3.6; that for `Fc1ccc(-c2c(Cl)nc3nc(C4CC4)nn3c2N2CCc3ccccc3C2)c(F)c1` [compound 522] was 3.87.
Same read-out and setting: the value for `Cc1nc2nc(Cl)c(-c3c(F)cc(F)cc3F)c(NC(C)C(C)C)n2n1` (stereo not shown) [compound 523] was 3.38.

The data set is the same for the next values; noted with them: HPLC, gradient method, acetonitrile/0.1% aqueous phosphoric acid; EEC directive 79/831 Annex V. A8.
In turn, `Cc1nc2nc(Cl)c(-c3c(F)cccc3F)c(N3CCCCO3)n2n1` [compound 524] registered a lipophilicity (logP) of 2.84.
Same read-out and setting: the result for `CC(C)CNc1c(-c2ccc(F)cc2F)c(Cl)nc2nc(C(F)(F)F)nn12` [compound 525] reads 4.03.
On the same count and under the same terms, the result for `CCCCNc1c(-c2ccc(F)cc2F)c(Cl)nc2nc(C(F)(F)F)nn12` [compound 526] reads 4.07.
Consider `CC(C)(C)CNc1c(-c2ccc(F)cc2F)c(Cl)nc2nc(C(F)(F)F)nn12` [compound 527], for which the logP is 4.4.
For `CCC(C)Nc1c(-c2ccc(F)cc2F)c(Cl)nc2nc(C(F)(F)F)nn12` (stereo not shown) [compound 528], the logP amounted to 4.03.
`Fc1ccc(-c2c(Cl)nc3nc(C(F)(F)F)nn3c2NCCC(F)(F)F)c(F)c1` [compound 529] came in with a logP of 3.7.
Same read-out and setting: the value for `Fc1ccc(-c2c(Cl)nc3nc(C(F)(F)F)nn3c2NC2CCCC2)c(F)c1` [compound 530] was 4.21.
The same measure, in the same setting: the value for `Fc1ccc(-c2c(Cl)nc3nc(C(F)(F)F)nn3c2NC2CC2)c(F)c1` [compound 531] was 3.49; that for `Fc1ccc(-c2c(Cl)nc3nc(C(F)(F)F)nn3c2NCC(F)(F)F)c(F)c1` [compound 532] was 3.58.
In turn, `Fc1ccc(-c2c(Cl)nc3nc(C(F)(F)F)nn3c2NCC2CC2)c(F)c1` [compound 533] had a lipophilicity (logP) of 3.8.
The same measure, in the same setting: the value for `C=C(C)CNc1c(-c2ccc(F)cc2F)c(Cl)nc2nc(C(F)(F)F)nn12` [compound 534] was 3.75; that for `CC(C)(C)Nc1c(-c2ccc(F)cc2F)c(Cl)nc2nc(C(F)(F)F)nn12` [compound 535] was 4.19; that for `Fc1ccc(-c2c(Cl)nc3nc(C(F)(F)F)nn3c2NC2CCCC(C(F)(F)F)C2)c(F)c1` (stereo not shown) [compound 536] was 4.44.
Same read-out and setting: the result for `Fc1ccc(-c2c(Cl)nc3nc(C(F)(F)F)nn3c2NC2CCC(C(F)(F)F)CC2)c(F)c1` (stereo not shown) [compound 537] reads 4.43.
`CN(C)CCN(C)c1c(-c2ccc(F)cc2F)c(Cl)nc2nc(C(F)(F)F)nn12` [compound 538] gave a logP of 1.77.
On the same count and under the same terms, the result for `C#CCN(C)c1c(-c2ccc(F)cc2F)c(Cl)nc2nc(C(F)(F)F)nn12` [compound 539] reads 3.65.
The same measure, in the same setting: the value for `CN(CC1OCCO1)c1c(-c2ccc(F)cc2F)c(Cl)nc2nc(C(F)(F)F)nn12` [compound 540] was 3.62; that for `C=CCN(C)c1c(-c2ccc(F)cc2F)c(Cl)nc2nc(C(F)(F)F)nn12` [compound 541] was 4.09; that for `CN(CCC#N)c1c(-c2ccc(F)cc2F)c(Cl)nc2nc(C(F)(F)F)nn12` [compound 542] was 3.19.
Compound `CN(Cc1ccco1)c1c(-c2ccc(F)cc2F)c(Cl)nc2nc(C(F)(F)F)nn12` [compound 543] showed a lipophilicity (logP) of 4.11.
Take `CC(C)CN(C)c1c(-c2ccc(F)cc2F)c(Cl)nc2nc(C(F)(F)F)nn12` [compound 544]: the logP is on record as 4.54.
Still for that read-out and setting: the value for `COCCN(C)c1c(-c2ccc(F)cc2F)c(Cl)nc2nc(C(F)(F)F)nn12` [compound 545] was 3.73.
Still for that read-out and setting: the result for `C=C(C)CN(C)c1c(-c2ccc(F)cc2F)c(Cl)nc2nc(C(F)(F)F)nn12` [compound 546] reads 4.44; that for `CCN(CCN(C)C)c1c(-c2ccc(F)cc2F)c(Cl)nc2nc(C(F)(F)F)nn12` [compound 547], 1.91; that for `C=CCN(CC)c1c(-c2ccc(F)cc2F)c(Cl)nc2nc(C(F)(F)F)nn12` [compound 548], 4.4.
Same read-out and setting: the value for `CCN(Cc1ccco1)c1c(-c2ccc(F)cc2F)c(Cl)nc2nc(C(F)(F)F)nn12` [compound 549] was 4.42.
`CCN(CCC#N)c1c(-c2ccc(F)cc2F)c(Cl)nc2nc(C(F)(F)F)nn12` [compound 550] showed a logP of 3.46.
`CCOC(=O)CN(CC)c1c(-c2ccc(F)cc2F)c(Cl)nc2nc(C(F)(F)F)nn12` [compound 551] displayed a logP of 4.05.
`CCCN(CC1CCCO1)c1c(-c2ccc(F)cc2F)c(Cl)nc2nc(C(F)(F)F)nn12` (stereo not shown) [compound 552]: the log partition coefficient (logP) is listed as 4.77.
The same measure, in the same setting: the value for `CCCN(CCOC)c1c(-c2ccc(F)cc2F)c(Cl)nc2nc(C(F)(F)F)nn12` [compound 553] was 4.39.

What is called logP is a log measure of how a compound divides between an organic and an aqueous phase.
